In patent EP0908457B1, “3-(1,2-benzisothiazol- and isoxazol-5-Y1)-2,4(1H,3H)-pyrimidinedione or thione and 3-(1,2-benzisothiazol- and isoxazol-5-y1)-4(3H)-pyrimidinone or thione herbicidal agents” (BASF AKTIENGESELLSCHAFT, priority 1997, dated 1999):

Legend:
Cyperus iria [1] = assay: Preemergence weed control under flooded paddy conditions, CYPIR (Rice Flatsedge); assay type: in vivo; settings: preemergence weeds, flooded paddy, herbicidal effect rating 0-9, three to four weeks after treatment
[2] = test system: Monochoria vaginalis, Presl.; assay: Preemergence weed control under flooded paddy conditions, MOOVA (Monochoria); assay type: in vivo; settings: preemergence weeds, flooded paddy, herbicidal effect rating 0-9, three to four weeks after treatment
[3] = test system: Echinochloa oryzoides (Ard.) Fritsch.; assay: Postemergence weed control under flooded paddy conditions, ECHORC (Watergrass (Calif.)); assay type: in vivo; settings: rated three to four weeks after treatment
[4] = test system: Oryza sativa, (L.) Tebonnet; assay: Rice tolerance to post-transplant applications under flooded paddy conditions (Example 188), ORYSAT (Rice, Tebonnet); settings: rated three to four weeks after treatment
Sagittaria pygmaea, L. [5] = assay: Preemergence weed control under flooded paddy conditions, SAGPY (Arrowhead (Pygmaea)); assay type: in vivo; settings: preemergence weeds, flooded paddy, herbicidal effect rating 0-9, three to four weeks after treatment
[6] = test system: Oryza sativa, (L.) Tebonnet; assay: Rice tolerance to post-transplant applications under flooded paddy conditions (Example 187), ORYSAT (Rice, Tebonnet); settings: herbicidal effect rating 0-9, three to four weeks after treatment
[7] = test system: Echinochloa oryzoides (Ard.) Fritsch.; assay: Preemergence weed control under flooded paddy conditions, ECHORC (Watergrass (Calif.)); assay type: in vivo; settings: preemergence weeds, flooded paddy, herbicidal effect rating 0-9, three to four weeks after treatment
[8] = test system: Monochoria vaginalis, Presl.; assay: Postemergence weed control under flooded paddy conditions, MOOVA (Monochoria); assay type: in vivo; settings: rated three to four weeks after treatment
[9] = test system: Cyperus serotinus, Rottb.; assay: Preemergence weed control under flooded paddy conditions, CYPSE (Flatsedge); assay type: in vivo; settings: preemergence weeds, herbicidal effect rating 0-9, three to four weeks after treatment
Sagittaria pygmaea, L. [10] = assay: Postemergence weed control under flooded paddy conditions, SAGPY (Arrowhead (Pygmaea)); assay type: in vivo; settings: rated three to four weeks after treatment
[11] = test system: Cyperus serotinus, Rottb.; assay: Postemergence weed control under flooded paddy conditions, CYPSE (Flatsedge); assay type: in vivo; settings: rated three to four weeks after treatment
Cyperus iria [12] = assay: Postemergence weed control under flooded paddy conditions, CYPIR (Rice Flatsedge); assay type: in vivo; settings: rated three to four weeks after treatment

Cn1c(C(F)(F)F)cc(=O)n(-c2ccc3snc(C(=O)C(C)(C)C)c3c2)c1=O [Example 432, 2,4(1H,3H)-Pyrimidinedione, 1-methyl-3-(3-pivaloyl-1,2-benzisothiazol-5-yl)-6-(trifluoromethyl)-]
CYPIR (Cyperus iria [1]; 0.0320 kg/ha): 8.0 | CYPIR (Cyperus iria [1]; 0.0620 kg/ha): 9.0 | CYPIR (Cyperus iria [1]; 0.1250 kg/ha): 9.0 | CYPIR (Cyperus iria [1]; 0.2500 kg/ha): 9.0 | MOOVA ([2]; 0.0320 kg/ha): 9.0 | MOOVA ([2]; 0.0620 kg/ha): 9.0 | MOOVA ([2]; 0.1250 kg/ha): 9.0 | MOOVA ([2]; 0.2500 kg/ha): 9.0 | herbicidal effect rating, ECHORC ([3]; Rate 0.0320 kg/ha): 9.0 | herbicidal effect rating, ECHORC ([3]; Rate 0.0620 kg/ha): 9.0 | herbicidal effect rating, ECHORC ([3]; Rate 0.1250 kg/ha): 9.0 | herbicidal effect rating, ECHORC ([3]; Rate 0.2500 kg/ha): 9.0 | herbicidal effect rating, ORYSAT (rice tolerance) ([4]; Rate 0.0320 kg/ha): 4.0 | herbicidal effect rating, ORYSAT (rice tolerance) ([4]; Rate 0.0620 kg/ha): 4.0 | herbicidal effect rating, ORYSAT (rice tolerance) ([4]; Rate 0.1250 kg/ha): 7.0 | herbicidal effect rating, ORYSAT (rice tolerance) ([4]; Rate 0.2500 kg/ha): 7.0 | SAGPY (Sagittaria pygmaea, L. [5]; 0.0320 kg/ha): 0.0 | SAGPY (Sagittaria pygmaea, L. [5]; 0.0620 kg/ha): 3.5 | SAGPY (Sagittaria pygmaea, L. [5]; 0.1250 kg/ha): 7.5 | SAGPY (Sagittaria pygmaea, L. [5]; 0.2500 kg/ha): 8.5 | ORYSAT ([6]; 0.0320 kg/ha): 6.0 | ORYSAT ([6]; 0.0620 kg/ha): 6.0 | ORYSAT ([6]; 0.1250 kg/ha): 6.5 | ORYSAT ([6]; 0.2500 kg/ha): 7.5 | ECHORC ([7]; 0.0320 kg/ha): 9.0 | ECHORC ([7]; 0.0620 kg/ha): 9.0 | ECHORC ([7]; 0.1250 kg/ha): 9.0 | ECHORC ([7]; 0.2500 kg/ha): 9.0 | herbicidal effect rating, MOOVA ([8]; Rate 0.0320 kg/ha): 9.0 | herbicidal effect rating, MOOVA ([8]; Rate 0.0620 kg/ha): 9.0 | herbicidal effect rating, MOOVA ([8]; Rate 0.1250 kg/ha): 9.0 | herbicidal effect rating, MOOVA ([8]; Rate 0.2500 kg/ha): 9.0 | CYPSE ([9]; 0.0320 kg/ha): 0.0 | CYPSE ([9]; 0.0620 kg/ha): 3.5 | CYPSE ([9]; 0.1250 kg/ha): 6.5 | CYPSE ([9]; 0.2500 kg/ha): 9.0 | herbicidal effect rating, SAGPY (Sagittaria pygmaea, L. [10]; Rate 0.0320 kg/ha): 0.0 | herbicidal effect rating, SAGPY (Sagittaria pygmaea, L. [10]; Rate 0.0620 kg/ha): 0.0 | herbicidal effect rating, SAGPY (Sagittaria pygmaea, L. [10]; Rate 0.1250 kg/ha): 2.0 | herbicidal effect rating, SAGPY (Sagittaria pygmaea, L. [10]; Rate 0.2500 kg/ha): 4.0 | herbicidal effect rating, CYPSE ([11]; Rate 0.0320 kg/ha): 0.0 | herbicidal effect rating, CYPSE ([11]; Rate 0.0620 kg/ha): 4.0 | herbicidal effect rating, CYPSE ([11]; Rate 0.1250 kg/ha): 7.0 | herbicidal effect rating, CYPSE ([11]; Rate 0.2500 kg/ha): 9.0 | herbicidal effect rating, CYPIR (Cyperus iria [12]; Rate 0.0320 kg/ha): 8.0 | herbicidal effect rating, CYPIR (Cyperus iria [12]; Rate 0.0620 kg/ha): 8.0 | herbicidal effect rating, CYPIR (Cyperus iria [12]; Rate 0.1250 kg/ha): 9.0 | herbicidal effect rating, CYPIR (Cyperus iria [12]; Rate 0.2500 kg/ha): 9.0
